Data set [1] addresses T1, N-type Ca2+ channels in IMR-32 cells (Homo sapiens, UniProt Q00975).
T1 construct: host or cells: IMR-32 cells, differentiated with dibutyryl cAMP and bromodeoxyuridine
As to the kind of experiment: Inhibition of N-type calcium flux in IMR-32 cells (Indo-1 fluorescence, nitrendipine present). The data set is classed as cell-based. The settings on record: for inhibition at 1 µM / inhibition at 10 µM: IMR-32; for IC50: IMR-32 cells, 5 μM nitrendipine, K+ depolarization. The method, boiled down:
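With L-type flux blocked by 5 μM nitrendipine, N-type Ca2+ entry was read as the Indo-1 emission ratio (400/490 nm, excitation 350 nm) at 30° C after KCl depolarization.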
On the technique in general: A change in cytosolic calcium serves as a functional read-out for many receptors and channels.

Data set [2] has as its system Na+ channels in superior cervical ganglion (SCG) neurons. As to the kind of experiment: Whole-cell voltage clamp, Na+ current in SCG neurons. Format: cell-based, rat. The settings on record: 10 μM. The method, boiled down:
(§1)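 Percent inhibition of control amplitude at steady-state block is the read-out: peak inward Na+ current at 0 mV, sustained K+ current at +50 mV, 35 msec steps every 10 sec from −65 to −55 mV. Recordings used whole-cell clamp of trypsin-dissociated SCG neurons, pH 7.4 external and pipette solutions, compounds applied by local perfusion.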

In data set [3] the target is T2, N-type Ca2+ channels in superior cervical ganglion (SCG) neurons (Rattus norvegicus, UniProt Q02294).
T2 construct: from tissue
As to the kind of experiment: Whole-cell voltage clamp, N-type Ca2+ current in SCG neurons. The settings on record: for IC50: read-out: Inhibition of N-type Ca2+ Current IC50. The data set is classed as cell-based. The procedure, abridged:
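Whole-cell voltage clamp of acutely trypsin-dissociated rat SCG neurons, with TEA/choline external solution (2 mM Ca2+) and Cs-methanesulfonate pipette solution. Currents evoked by 150 ms steps to +20 mV from −65 to −55 mV holding, every 40 s; compounds applied locally, effect as % inhibition of control amplitude.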

The test system of data set [4] is K+ channels in superior cervical ganglion (SCG) neurons. As to the kind of experiment: Whole-cell voltage clamp, K+ current in SCG neurons. Format: cell-based, rat. To be noted: 10 μM. The method, boiled down: as §1
Data set [5] deals with T3, L-type Ca2+ channels in A10 cells (Rattus norvegicus, UniProt P22002).
T3 construct: which endogenously expresses L-type calcium channels; host or cells: A10 rat aortic smooth muscle cells
As to the kind of experiment: Inhibition of L-type calcium flux in A10 cells (FLIPR). The data set is classed as cell-based. On the procedure: Measurement of L-type Ca^2+ Channel Blocking Potencies of Compounds in A10 cells
Calcium flux through voltage-sensitive calcium channels was assessed by time-resolved monitoring of the fluorescence of pre-loaded calcium-sensitive dyes using FLIPR, a fluorescent image plate reader (Molecular Devices Co.). The A10 smooth muscle cell line derived from embryonic thoracic aorta of the DBIX rat (ATCC, CRL-1476) which endogenously expresses L-type calcium channels. The growth media for A10 cells was Ham's F12/DME high glucose (Irvine Scientific, 9052), supplemented with 20% fetal bovine serum (HyClone Labs, A-1115-L), and 1% each of L-glutamine and antibiotic-antimycotic (same source as above).
Cells were grown to confluency and replated on black-sided 96-well plates (Costar, 3603) for use in FLIPR. Two days after replating, growth media was removed and cells were loaded at 37° C. with 100 μL media containing 1 μM Oregon Green 488 Bapta-1 dye (Molecular Probes, O-6807) for 1 to 3 hours. The dye-containing media was then washed away with buffer (composition in mM: 1.25 CaCl2, 1.2 MgSO4, 11 glucose, 10 HEPES, 3.0 KCl, 137.0 NaCl, pH 7.4 with Tris base) in a Denley Cellwash (Labsystems, CW018B). The residual buffer volume was adjusted to 50 μL. A 5 minute drug-pre-incubation period at 35° C. was initiated when 50 μL of drug-containing buffer was pipetted into the cell plate with the 96-well pipettor integrated in the FLIPR apparatus. Fluorescent counts were monitored at 20 second intervals for 360 seconds, beginning 60 seconds prior to the delivery of drug-containing buffer. Following drug addition, 100 μL aliquots of a high K^+, depolarizing stimulus (composition in mM: 1.25 CaCl2, 1.2 MgSO4, 11 glucose, 10 HEPES, 140.0 KCl, pH 7.4 with Tris base) were added to each well and fluorescence was monitored at 1 second intervals for 120 seconds, beginning 10 seconds prior to the stimulus addition. CCD camera exposure time was 0.4 seconds, laser excitation was at 488 nm with a power of 0.2-0.5W, and a 510 to 560 nm bandpass interference filter preceded the camera.
Data was analyzed as a summation of fluorescent counts above basal during the stimulation period (an approximation of area under the curve), after normalizing the data with a spatial uniformity correction (for variations in laser illumination and cell density) and a negative control correction (zero calcium increase defined as the fluorescence reading in the presence of saturating pharmacologic block of the respective calcium channel). Drug effects were expressed as percent inhibition of fluorescence from an average of 8 K^+-stimulated wells which were pre-treated in the drug incubation period with buffer only.
In the A10 cells, the pharmacologic agent used to define zero calcium influx was nitrendipine (RBI, N-144), at a final concentration of 1.0×10^−6 M.

T2 sequence (Q02294 whole entry): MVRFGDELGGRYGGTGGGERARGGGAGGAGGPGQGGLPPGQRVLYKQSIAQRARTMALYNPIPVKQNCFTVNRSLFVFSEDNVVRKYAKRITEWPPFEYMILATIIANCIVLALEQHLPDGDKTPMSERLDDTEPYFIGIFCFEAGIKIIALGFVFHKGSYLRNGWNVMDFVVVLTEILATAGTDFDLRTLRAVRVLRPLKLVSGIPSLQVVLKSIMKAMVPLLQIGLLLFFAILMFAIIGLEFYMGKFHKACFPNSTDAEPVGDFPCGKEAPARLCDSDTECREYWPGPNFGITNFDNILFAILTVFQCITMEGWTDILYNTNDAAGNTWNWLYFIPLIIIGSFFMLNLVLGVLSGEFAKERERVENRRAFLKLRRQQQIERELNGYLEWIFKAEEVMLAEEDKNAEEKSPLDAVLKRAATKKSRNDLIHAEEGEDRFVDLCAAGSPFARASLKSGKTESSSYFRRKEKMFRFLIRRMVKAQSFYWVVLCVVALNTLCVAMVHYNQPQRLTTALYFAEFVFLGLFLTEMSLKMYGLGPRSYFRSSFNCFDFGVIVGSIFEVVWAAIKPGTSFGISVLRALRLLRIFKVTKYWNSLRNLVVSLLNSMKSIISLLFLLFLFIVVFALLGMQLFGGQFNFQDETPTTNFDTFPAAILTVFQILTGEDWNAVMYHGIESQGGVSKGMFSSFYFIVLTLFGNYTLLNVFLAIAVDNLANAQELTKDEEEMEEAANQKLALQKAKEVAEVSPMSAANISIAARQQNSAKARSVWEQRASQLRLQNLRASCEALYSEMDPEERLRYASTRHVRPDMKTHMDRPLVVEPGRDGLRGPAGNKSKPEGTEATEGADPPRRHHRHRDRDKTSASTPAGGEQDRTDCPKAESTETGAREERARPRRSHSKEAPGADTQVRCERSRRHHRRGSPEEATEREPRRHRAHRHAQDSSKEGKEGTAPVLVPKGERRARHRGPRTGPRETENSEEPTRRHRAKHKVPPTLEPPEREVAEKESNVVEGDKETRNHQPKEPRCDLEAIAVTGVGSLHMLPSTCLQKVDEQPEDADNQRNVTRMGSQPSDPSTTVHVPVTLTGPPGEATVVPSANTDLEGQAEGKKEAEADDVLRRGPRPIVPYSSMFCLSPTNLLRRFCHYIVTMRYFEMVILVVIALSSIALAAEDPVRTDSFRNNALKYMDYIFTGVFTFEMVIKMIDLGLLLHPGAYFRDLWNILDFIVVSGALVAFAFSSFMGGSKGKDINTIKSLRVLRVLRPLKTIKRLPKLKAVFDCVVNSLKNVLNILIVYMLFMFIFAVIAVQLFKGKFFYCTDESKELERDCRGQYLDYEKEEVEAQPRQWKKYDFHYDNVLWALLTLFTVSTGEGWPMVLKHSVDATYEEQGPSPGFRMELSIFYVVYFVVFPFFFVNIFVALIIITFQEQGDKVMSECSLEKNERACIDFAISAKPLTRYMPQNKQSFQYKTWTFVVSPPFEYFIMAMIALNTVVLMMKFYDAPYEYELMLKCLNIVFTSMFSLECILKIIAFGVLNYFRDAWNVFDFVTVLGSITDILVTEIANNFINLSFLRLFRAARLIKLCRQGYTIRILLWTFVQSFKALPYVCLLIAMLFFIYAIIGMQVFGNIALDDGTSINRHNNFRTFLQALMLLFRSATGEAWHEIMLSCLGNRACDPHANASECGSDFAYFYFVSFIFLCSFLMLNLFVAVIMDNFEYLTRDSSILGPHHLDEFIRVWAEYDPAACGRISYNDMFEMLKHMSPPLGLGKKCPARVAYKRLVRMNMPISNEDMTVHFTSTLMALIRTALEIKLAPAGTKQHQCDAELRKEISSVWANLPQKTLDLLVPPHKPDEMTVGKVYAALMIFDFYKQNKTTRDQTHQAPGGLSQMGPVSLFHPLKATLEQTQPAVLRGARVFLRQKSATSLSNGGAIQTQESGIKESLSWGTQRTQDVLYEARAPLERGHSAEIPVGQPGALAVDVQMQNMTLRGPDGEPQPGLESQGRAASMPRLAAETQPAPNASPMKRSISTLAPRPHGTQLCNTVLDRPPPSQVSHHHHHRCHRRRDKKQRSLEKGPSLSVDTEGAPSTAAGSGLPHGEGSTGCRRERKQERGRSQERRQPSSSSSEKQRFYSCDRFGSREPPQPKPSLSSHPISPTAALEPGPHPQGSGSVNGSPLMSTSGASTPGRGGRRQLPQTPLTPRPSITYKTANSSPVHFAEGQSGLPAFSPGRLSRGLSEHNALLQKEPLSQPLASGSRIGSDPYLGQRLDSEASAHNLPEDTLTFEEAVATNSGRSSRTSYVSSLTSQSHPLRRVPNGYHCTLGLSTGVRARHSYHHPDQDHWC
T2 sequence (P54290 25-944 partner limits assumed): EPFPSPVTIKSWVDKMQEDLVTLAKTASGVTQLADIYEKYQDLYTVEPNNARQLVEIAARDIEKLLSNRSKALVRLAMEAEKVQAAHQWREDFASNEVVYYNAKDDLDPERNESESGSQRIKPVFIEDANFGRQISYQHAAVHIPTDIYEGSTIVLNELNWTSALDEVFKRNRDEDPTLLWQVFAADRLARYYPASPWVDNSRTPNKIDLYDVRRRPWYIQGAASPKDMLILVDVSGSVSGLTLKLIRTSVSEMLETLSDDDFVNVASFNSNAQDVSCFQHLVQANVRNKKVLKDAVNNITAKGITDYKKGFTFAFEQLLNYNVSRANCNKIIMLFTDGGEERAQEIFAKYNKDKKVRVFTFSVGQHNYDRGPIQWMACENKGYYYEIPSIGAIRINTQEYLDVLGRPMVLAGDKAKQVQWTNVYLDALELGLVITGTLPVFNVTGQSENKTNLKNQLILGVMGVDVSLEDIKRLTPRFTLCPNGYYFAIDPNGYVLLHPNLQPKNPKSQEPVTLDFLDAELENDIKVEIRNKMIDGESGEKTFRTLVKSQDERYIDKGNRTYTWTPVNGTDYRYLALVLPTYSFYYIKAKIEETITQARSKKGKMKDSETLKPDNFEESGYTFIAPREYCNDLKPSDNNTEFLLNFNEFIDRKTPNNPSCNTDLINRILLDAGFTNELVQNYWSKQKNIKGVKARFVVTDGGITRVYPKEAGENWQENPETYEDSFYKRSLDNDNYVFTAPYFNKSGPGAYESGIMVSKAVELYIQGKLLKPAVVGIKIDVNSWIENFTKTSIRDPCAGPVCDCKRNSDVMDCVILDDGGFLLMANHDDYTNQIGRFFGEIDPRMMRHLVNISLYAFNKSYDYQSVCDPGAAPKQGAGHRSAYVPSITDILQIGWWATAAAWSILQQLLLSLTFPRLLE
T2 sequence (P54290 945-1091 partner limits assumed): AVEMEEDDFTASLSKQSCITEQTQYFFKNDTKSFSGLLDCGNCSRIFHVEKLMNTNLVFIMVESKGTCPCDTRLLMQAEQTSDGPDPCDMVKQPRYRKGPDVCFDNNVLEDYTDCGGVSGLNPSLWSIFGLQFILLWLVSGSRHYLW
T2 sequence (P54287 whole entry partner): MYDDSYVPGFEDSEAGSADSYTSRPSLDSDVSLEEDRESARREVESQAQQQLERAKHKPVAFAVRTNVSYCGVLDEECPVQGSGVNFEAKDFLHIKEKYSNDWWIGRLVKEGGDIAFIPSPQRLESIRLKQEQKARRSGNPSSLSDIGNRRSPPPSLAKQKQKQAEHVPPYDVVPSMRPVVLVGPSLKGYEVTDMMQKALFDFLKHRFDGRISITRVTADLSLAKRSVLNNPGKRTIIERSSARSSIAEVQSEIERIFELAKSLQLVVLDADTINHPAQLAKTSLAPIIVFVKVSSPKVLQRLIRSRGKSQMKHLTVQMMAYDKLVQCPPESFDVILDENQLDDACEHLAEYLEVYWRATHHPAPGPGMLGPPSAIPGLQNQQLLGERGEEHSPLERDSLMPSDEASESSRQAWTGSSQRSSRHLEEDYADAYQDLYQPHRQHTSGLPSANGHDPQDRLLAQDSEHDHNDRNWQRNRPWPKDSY

As a reminder, the inhibition is the share of the control response that was lost under treatment. The term IC50 denotes the concentration that inhibits the measured activity by half. One may read the melting point as the temperature, or range, at which the solid turns liquid. With `CCC(C)[C@H](NC(=O)N1CCCCCC1)C(=O)N[C@@H](Cc1ccc(OCc2ccccc2)cc1)C(=O)OC(C)(C)C` (stereo partly drawn) [Example 5, (S)-2-{(S)-2-[(Azepane-1-carbonyl)-amino]-3-methyl-pentanoylamino}-3-(4-benzyloxy-phenyl)-propionic acid tert-butyl ester], the melting point lay in the range of 53 to 57 °C. Further, in data set [1], the inhibition at 1 µM stood at 60%, the inhibition at 10 µM stood at 94% and the half-maximal inhibitory concentration (IC50) came to 820 nM. Besides, in data set [2], the “Inhibition of Na+ Current, % Inhibition at 10 μM” value is 10%. In data set [3], 10 µM produced 70% inhibition and the 50% inhibitory concentration (IC50) came out at 620 nM. In data set [4], the “Inhibition of K+ Current, % Inhibition at 10 μM” value came out at 13%.

`CC(C)C[C@H](NC(=O)N1CCCCCC1)C(=O)N[C@](C)(Cc1ccc(OCc2ccccc2)cc1)C(=O)OC(C)(C)C` [Example 11B, 2(R)-{2(S)-[(Azepane-1-carbonyl)-amino]-4-methyl-pentanoylamino}-3-(4-benzyloxy-phenyl)-2-methyl-propionic acid tert-butyl ester] came in with a melting point of 62 to 66 °C. In data set [1], the inhibition at 1 µM is 35%, the inhibition at 10 µM was 80% and the 50% inhibitory concentration (IC50) is 2300 nM. The “Inhibition of Na+ Current, % Inhibition at 10 μM” value in data set [2] is on record as 48%. For the same compound, 10 µM produced 17% inhibition in data set [3]. The “Inhibition of K+ Current, % Inhibition at 10 μM” value in data set [4] came out at 46%.

Compound `CC(C)C[C@H](NC(=O)N1CCCCCC1)C(=O)N[C@@H](Cc1ccc(OC(C)(C)C)cc1)C(=O)OC(C)(C)C` [Example 12, [S-(R*,R*)]-2-{2-[(Azepane-1-carbonyl)-amino]-4-methyl-pentanoylamino}-3-(4-tert-butoxy-phenyl)-propionic acid tert-butyl ester] registered a melting point of 87 to 90 °C. Moreover, in data set [1], the inhibition at 1 µM came out at 57%, the inhibition at 10 µM came to 95% and the IC50 is 480 nM. In addition, the “Inhibition of Na+ Current, % Inhibition at 10 μM” value in data set [2] amounted to 14%. For the same compound, in data set [3], 10 µM produced 65% inhibition and the half-inhibitory concentration (IC50) was determined as 6780 nM. Also, the “Inhibition of K+ Current, % Inhibition at 10 μM” value in data set [4] turned out to be 38%.

Compound `COC(=O)[C@H](Cc1ccc(OCc2ccccc2)cc1)NC(=O)[C@H](CC(C)C)NC(=O)N1CCCCCC1` [Example 15, [S-(R*,R*)]-2-{2-[(Azepane-1-carbonyl)-amino]-4-methyl-pentanoylamino}-3-(4-benzyloxy-phenyl)-propionic acid methyl ester] displayed a melting point of 72 to 74 °C. Moreover, in data set [1], the inhibition at 1 µM was determined as 45%, the inhibition at 10 µM is 99% and the IC50 came to 1100 nM.

In turn, `CC(C)C[C@H](NS(=O)(=O)c1ccc(C(C)C)cc1)C(=O)N[C@@H](Cc1ccc(OCc2ccccc2)cc1)C(=O)OC(C)(C)C` [Example 37, [S-(R*,R*)]-3-(4-Benzyloxy-phenyl)-2(S)-[2(S)-(4-isopropyl-benzenesulfonylamino)-4-methyl-pentanoylamino]-propionic acid tert-butyl ester] yielded a melting point of 147 to 148 °C. In addition, in data set [1], the inhibition at 1 µM was found to be 65%, the inhibition at 10 µM came to 91% and the IC50 worked out at 280 nM. In addition, the “Inhibition of Na+ Current, % Inhibition at 10 μM” value in data set [2] was determined as 5%. The “Inhibition of K+ Current, % Inhibition at 10 μM” value in data set [4] turned out to be 9%.

Compound `CC(C)C[C@H](NS(=O)(=O)c1ccc(Br)cc1)C(=O)N[C@@H](Cc1ccc(OCc2ccccc2)cc1)C(=O)OC(C)(C)C` [Example 38, [S-(R*,R*)]-2-{2-[(4-Bromobenzene-1-sulfonyl-carbonyl)-amino]-4-methyl-pentanoylamino-3-(4-benzyloxyphenyl)-propionic acid, tert-butyl ester] returned a melting point of 148 to 149 °C. Further, in data set [1], the inhibition at 1 µM is 48%, the inhibition at 10 µM was determined as 83% and the IC50 is 940 nM.

Consider `CC(C)C[C@H](NS(=O)(=O)N1CCCCCC1)C(=O)N[C@@H](Cc1ccc(OCc2ccccc2)cc1)C(=O)OC(C)(C)C` [Example 40, [S-(R*,R*)]-2-[2-(Azepane-1-sulfonylamino)-4-methyl-pentanoylamino]-3-(4-benzyloxy-phenyl)-propionic acid tert-butyl ester], for which the melting point is 123 to 124 °C. Besides, in data set [1], the inhibition at 1 µM came out at 48%, the inhibition at 10 µM is 86% and the half-inhibitory concentration (IC50) was determined as 1000 nM.

`CC(C)C[C@H](NS(=O)(=O)N1CCCCC1)C(=O)N[C@@H](Cc1ccc(OCc2ccccc2)cc1)C(=O)OC(C)(C)C` [Example 41, [S-(R*,R*)]-3-(4-Benzyloxy-phenyl)-2-[4-methyl-2-(piperidine-1-sulfonylamino)-pentanoylamino]-propionic acid tert-butyl ester] returned a melting point of 125 to 126 °C. Also, in data set [1], the inhibition at 1 µM was 51%, the inhibition at 10 µM was 86% and the half-maximal inhibitory concentration (IC50) is 800 nM.

Consider `CC(C)C[C@H](NS(=O)(=O)N1CCOCC1)C(=O)N[C@@H](Cc1ccc(OCc2ccccc2)cc1)C(=O)OC(C)(C)C` [Example 42, [S-(R*,R*)]-3-(4-Benzyloxy-phenyl)-2-[4-methyl-2-(morpholine-4-sulfonylamino)-pentanoylamino]-propionic acid tert-butyl ester], for which the melting point was 54 to 57 °C. Further, in data set [1], the inhibition at 1 µM came out at 50%, the inhibition at 10 µM was 95% and the IC50 was found to be 950 nM. Further, the inhibition at 10 µM in data set [3] was found to be 64%.

`CC(C)C[C@H](NC(=S)NC1CCCCC1)C(=O)N[C@@H](Cc1ccc(OCc2ccccc2)cc1)C(=O)OC(C)(C)C` [Example 47, [S-(R*,R*)]-3-(4-benzyloxy-phenyl)-2-[2-(3-cyclohexyl-thioureido)-4-methyl-pentanoylamino}-propionic acid, tert-butyl ester] showed a melting point of 161 to 162 °C. Further, in data set [1], the inhibition at 1 µM is 42%, the inhibition at 10 µM came to 63% and the IC50 came to 1300 nM.

`CC(C)C[C@H](NC(=S)Nc1ccccc1Cl)C(=O)N[C@@H](Cc1ccc(OCc2ccccc2)cc1)C(=O)OC(C)(C)C` [Example 48, [S-(R*,R*)]-3-(4-Benzyloxy-phenyl)-2-{2-[3-(2-chloro-phenyl)-thioureido]-4-methyl-pentanoylamino}-propionic acid tert-butyl ester] registered a melting point of 66 to 67 °C. In data set [1], the inhibition at 1 µM worked out at 52%, the inhibition at 10 µM was 81% and the IC50 amounted to 1200 nM.

Consider `CC(C)C[C@H](NC(=O)N1CCCCCC1)C(=O)N[C@@H](Cc1ccc(C#Cc2ccccn2)cc1)C(=O)NC(C)(C)C` [Example 137, [S-(R*,R*)]-Azepane-1-carboxylic acid {1-[1-tert-butylcarbamoyl-2-(4-pyridin-2-ylethynyl-phenyl)-ethylcarbamoyl]-3-methyl-butyl}-amide], for which the IC50 in data set [5] was 2600 nM.

The record behind these values is patent publication US6423689B1, “Peptidyl calcium channel blockers” (Warner-Lambert Company, priority 1997, dated 2002).
